Data as given in patent US20250017907A1, “METHOD FOR PREVENTING AND/OR TREATING LIVER FIBROSIS BY USING 6-METHOXYBENZOXAZOLINONE AND COIX LACHRYMA-JOBI L. EXTRACT COMPRISING 6-METHOXYBENZOXAZOLINONE” (Taichung District Agricultural Research and Extension …, priority 2023, published 2025).

Tests used:
[1] = test system: PI3K and ERK signaling pathway; assay: Western blot of PI3K and ERK signaling pathway; type: cell-based, rat; settings: TGF-β1-activated HSC-T6 cells, CX
Description: The procedure of cell cultures is as follows. HSC-T6 cell is an immortalized cell line isolated from transformed SV40 large T-antigen transformed primary stellate cells of male Sprague-Dawley rats. HSC-T6 cells were maintained in Dulbecco's Modified Eagle Medium (DMEM, Sigma-Aldrich, USA) containing 8% fetal bovine serum (FBS, HyClone, USA), 100 U/mL of penicillin, and 100 μg/mL of streptomycin (Gibco, USA).
For hepatic stellate cell (HSC) activation, cells were cultured for 24 h and then replaced with serum-free medium for 24 h, after that, treated with transforming growth factor beta 1 (TGF-β1) (10 ng/mL) in the presence or absence of CX (10-100 μM) or adlay leaf, root, and seed extracts (25 and 50 μg/mL) for 24 h, or 30 min for intracellular signal pathways.
The procedure of Western blot analysis is as follows. Cells were lysed in RIPA buffer with protease inhibitor and then centrifuged at 4° C., 12000 rpm for 10 min. Collected the supernatant and quantified the total protein concentration to 50 μg. After heating at 95° C. for 10 min, the protein samples were separated by SDS-PAGE gel, transferred to PVDF membrane, followed by blocking with 6% milk, incubated with primary antibodies at 4° C., overnight and secondary antibodies at room temperature for 1 h. Blot images were visualized on Amersham Imager 680 (Cytiva, USA) with ECL agent (GeneDireX, USA).

[2] = test system: TAA-induced liver fibrotic C57BL/6J mice; assay: Real-time PCR of liver fibrotic and inflammatory genes; type: in vivo; settings: CX groups (20 and 50 mg/kg oral, 6 weeks); vs TAA group
Description: (§1) For tests of adlay extracts, mice were randomly divided into the following seven groups (n=6, per group): (1) No treatment group (NT, normal diet), (2) Thioacetamide group (TAA, 200 mg/kg, normal diet), (3) 10% adlay seed powder (ASP) group, (4) 1% adlay leaf powder (ALP) group, (5) 1% adlay seed polysaccharide (ASPS) group, (6) 0.025% adlay seed ethanolic extract (ASE) group and (7) 0.1% ASE group. NT group received pure saline, and other groups intraperitoneally injected with TAA dissolved into saline thrice a week.
(§2) For tests of CX, mice were randomly divided into the following four groups (n=8, per group): (1) NT group, (2) TAA group (200 mg/kg), (3) CX group (CX20, 20 mg/kg), and (4) CX group (CX50, 50 mg/kg). NT group received pure saline, and other groups intraperitoneally injected with TAA dissolved into saline thrice a week. Moreover, NT group and TAA group also received 5% propylene glycol, while CX groups received CX dissolved into 5% propylene glycol (prepared in 0.9% saline) by oral gavage once per day.
The procedure of real-time PCR analysis is as follows. Total RNA was extracted with the Trizol reagent (Ambion, USA) and then reverse-transcribed into cDNA with RevertAid First Strand cDNA Synthesis kit (Thermo Scientific, USA). The PCR amplification was accomplished with SYBR Green PCR Master Mix (Applied Biosystems, USA), and the mRNA expression of the gene was normalized to GAPDH. All primers were obtained from Genomics (Genomics, Taiwan). Rat primer sequences are used for real-time PCR of HSC-T6 cells, and mouse primer sequences are used for real-time PCR of C57BL/6J mice.

[3] = test system: TAA-induced liver fibrotic C57BL/6J mice; assay: Serum biochemical analysis (liver function and nutrient metabolism); type: in vivo; settings: CX groups (20 and 50 mg/kg oral, 6 weeks); vs TAA group
Description: as §1, §2
At the end of the experiment, the mice were sacrificed. Serum was obtained from the whole blood of mice after centrifuging and stored at −80° C., and the liver tissues were collected and used for the tissue histological staining.
The procedure of biochemical analysis is as follows. The levels of serum alanine aminotransferase (ALT), aspartate aminotransferase (AST), total bilirubin (TBIL), alkaline phosphatase (ALP), total cholesterol (TC), total glyceride (TG), and glucose were measured with the chemistry analyzer. Briefly, after centrifuging the whole blood from mice, collected the serum, dropped the serum at the tested chips for analysis with an Automated Clinical Chemistry Analyzer (Fuji, Japan).

COc1ccc2[nH]c(=O)oc2c1 [CX, 6-methoxybenzoxazolinone]
phosphorylation of ERK (p-ERK1/2, Western blot) [1]: did not cause significant changes | phosphorylation of PI3K (p-PI3K, Western blot) [1]: did not cause significant changes | TAA-induced downregulation of liver IL-10 mRNA level [2]: significantly decreased | TAA-induced upregulation of liver COL1A1 mRNA [2]: significantly decreased | TAA-induced upregulation of liver IL-6 mRNA level [2]: significantly decreased | TAA-induced upregulation of liver TNF-α mRNA level [2]: significantly decreased | TAA-induced upregulation of liver α-SMA mRNA [2]: significantly decreased | changes in serum TC level caused by TAA [3]: significantly reduced | changes in serum TG level caused by TAA [3]: significantly reduced | changes in serum glucose level caused by TAA [3]: significantly reduced | serum ALP [3]: decreased significantly | serum ALT [3]: decreased significantly | serum AST [3]: decreased significantly | serum TBIL [3]: decreased significantly
